Key:
[1] = cited from earlier work
[2] = test system: stress-induced ulceration in rats; assay: Inhibition of the stress-induced ulceration by prostaglandins, rats; type: in vivo, Donryu strain male rats; details: for Inhibitory ratio (%): stress 8 hr at 23° C; for anti-stress ulcer potency relative to Compound C / anti-stress ulcer activity compared with PGE1 / anti-stress ulcer activity compared with PGE2: oral; for anti-stress ulcer potency relative to Compound C: versus Compound C; for anti-stress ulcer activity compared with PGE1: versus PGE1; for anti-stress ulcer activity compared with PGE2: versus PGE2
Description: The method employed for the production and evaluation of stress ulcer was essentially same as described by Takagi and Okabe in Journal of Pharmacology vol. 18, pages 9-18 (Japan). Donryu strain male rats, 200 - 230 g in weight, were used. Animals were placed in the stress cage and immersed in a water bath kept at 23° C for 8 hr to the height of the xiphoid of the animal. At the end of the stress, the animals were killed by a blow, and stomach was removed, inflated with 10 ml of 1% formalin solution and placed into 1% formalin solution. Thereafter the stomach was cut along the greater curvature and examined for lesions macroscopically. The ulcer index was calculated as the sum of the length of each lesion in the stomach. Inhibitory ratio of ulceration was calculated for each dose. The test drugs were dissolved into 0.4% Tween 80 solution with aid of an ultrasonicator and administered orally (0.2 ml/100 g) immediately before the stress.

[3] = test system: indomethacin-induced gastric ulceration in rats; assay: Inhibition of indomethacin-induced gastric ulceration by prostaglandins, rats; type: in vivo, Sprague-Dawley strain male rats; details: for Inhibitory ratio (%): 5 hours; for ED50: Rattus norvegicus, po, 5 h, p.o., indomethacin 30 mg/kg i.p., read-out: ED50 (50% inhibition of the ulcer formation)
Description: The method employed for the production and evaluation of indomethacin-induced ulcers was essentially same as described by Lee, Mollison and Cheng in Archives Internationales de Pharmacodynamie et de Therapie, vol. 191, page 370 - 377 and by Lippmann in Prostaglandins, vol. 7, page 1 - 10. Sprague-Dawley strain male rats weighing 200 - 220 g were fasted 20 hours with free access to water until the start of experiment. Indomethacin was suspended in 0.4% Tween 80 (surface active agent, product of Atlas Powder Co. U.S.A.) solution and given intraperitoneally into the rats at a dose of 30 mg/kg body weight. The test drugs were dissolved in physiological saline with aid of an ultrasonicator and administered perorally immidiately after the administration of indomethacin. The animals were killed 5 hours later and the ulcer formation in the glandular portion of the stomach was determined.

[4] = stated for prior prostaglandins; cited from earlier work
[5] = diarrheal activity; type: in vivo; details: in words
[6] = vasodepressor activity; type: in vivo; details: in words
[7] = test system: intestinal tube; details: stated for prior prostaglandins; cited from earlier work
[8] = test system: gastric secretion; details: German Patent Offenlegungsschrift 2,313,868; cited from earlier work

## CCCCC[C@H](O)/C=C/[C@H]1[C@H](O)CC(=O)[C@@H]1C/C=C\CCCC(=O)O [PGE2, reference compound]
[1]; U.S. Pat. No. 3,781,429, Prostaglandins 1974, 6, 523-532
  anti-ulcerogenic effects: anti-ulcerogenic effects
[2]; 0.3 mg/kg p.o.
  Inhibitory ratio (%): 17%
[2]; 1.0 mg/kg p.o.
  Inhibitory ratio (%): 60%
[3]; 0.05 mg/kg p.o.
  Inhibitory ratio (%): 57%
[3]; 0.25 mg/kg p.o.
  Inhibitory ratio (%): 79%
[3]; PGE2 versus compound A
  potency relative to compound A in inhibition of the indomethacin-induced ulcer formation: approximately 5 times
[3]
  ED50: 0.03 mg/kg
[4]
  hypotensive activity: potent hypotensive
[5]
  diarrhea (side effect): exhibits various side effects including diarrhea
[6]
  vasodepressor activity: vasode-pressor activity
[7]
  intestinal tube-contracting activity: potent hypotensive and intestinal tube-contracting activities

## CCCCC(C)(C)[C@H](O)/C=C/[C@H]1[C@H](C)CC(=O)[C@@H]1CCCCCCC(=O)OC (relative stereo) [Compound B, Methyl 9-oxo-11α,16,16-trimethyl-15α-hydroxyprost-13(trans)-enoate]
[2]; 0.3 mg/kg p.o.
  Inhibitory ratio (%): 11%
[2]; 1.0 mg/kg p.o.
  Inhibitory ratio (%): 92%
[2]
  anti-stress ulcer potency relative to Compound C: more than 10 times
  anti-stress ulcer activity compared with PGE1: significantly more potent than that of PGE1
  anti-stress ulcer activity compared with PGE2: equally potent as or slightly more potent than that of PGE2
[3]; 0.25 mg/kg p.o.
  Inhibitory ratio (%): 49%
[3]; 0.50 mg/kg p.o.
  Inhibitory ratio (%): 67%
[3]
  ED50: 0.26 mg/kg

## CCCCC[C@H](O)/C=C/[C@H]1[C@H](O)CC(=O)[C@@H]1CCCCCCC(=O)O [PGE1]
[7]
  intestinal tube-contracting activity: potent hypotensive and intestinal tube-contracting activities

## CCCCCC(O)/C=C/C1C(C)CC(=O)C1CCCCCCC(=O)O (stereo not drawn) [9-oxo-11β-methyl-15α(or β)-hydroxyprost-13(trans)-enoic acid]
[1]; versus prostaglandins E1 and E2
  anti-ulcerogenic activity compared with prostaglandins E1 and E2: extremely lower than that of prostaglandins E1 and E2
[8]
  inhibition of gastric secretion: inhibit gastric secretion

## CCCCC(C)(C)[C@H](O)/C=C/[C@H]1[C@H](C)CC(=O)[C@@H]1CCCCCCC(=O)O (relative stereo) [Compound A, 9-Oxo-11α,16,16-trimethyl-15α-hydroxyprost-13(trans)-enoic acid]
[2]; 0.3 mg/kg p.o.
  Inhibitory ratio (%): 12%
[2]; 1.0 mg/kg p.o.
  Inhibitory ratio (%): 73%
[2]
  anti-stress ulcer potency relative to Compound C: more than 10 times
  anti-stress ulcer activity compared with PGE1: significantly more potent than that of PGE1
  anti-stress ulcer activity compared with PGE2: equally potent as or slightly more potent than that of PGE2
[3]; 0.25 mg/kg p.o.
  Inhibitory ratio (%): 63%
[3]; 0.50 mg/kg p.o.
  Inhibitory ratio (%): 71%
[3]
  ED50: 0.16 mg/kg

## CCCCC[C@H](O)/C=C/[C@H]1[C@H](C)CC(=O)[C@@H]1CCCCCCC(=O)O (relative stereo) [Compound C, 9-Oxo-11α-methyl-15α-hydroxyprost-13(trans)-enoic acid]
[2]; 5.0 mg/kg p.o.
  Inhibitory ratio (%): 9%
[2]; 10 mg/kg p.o.
  Inhibitory ratio (%): 40%
[3]; 1.25 mg/kg p.o.
  Inhibitory ratio (%): 52%
[3]; 2.5 mg/kg p.o.
  Inhibitory ratio (%): 68%
[3]
  ED50: 1.18 mg/kg

## CCCCC[C@H](O)/C=C/[C@H]1[C@@H](C)CC(=O)[C@@H]1CCCCCCC(=O)O (relative stereo) [Compound D, 9-Oxo-11β-methyl-15α-hydroxyprost-13(trans)-enoic acid, reference compound]
[3]; 1.25 mg/kg p.o.
  Inhibitory ratio (%): 43%
[3]; 2.5 mg/kg p.o.
  Inhibitory ratio (%): 61%
[3]
  ED50: 1.64 mg/kg

From US3996263A, “9-Oxo-11α-methyl-15.EPSILON.-hyroxyprost-13(trans)-enoic acid derivatives and process for the preparaion thereof” (priority 1975, dated 1976)
